Values after ≈ are worked out from the molar mass of the structure shown. Blank lines part the entries; values can stand above or below the compound they belong to.
How the values were obtained:
[1] = cited from earlier work
K. pneumoniae ARC5118 [2] = experiment: MIC, broth microdilution (CLSI); type: cell-based
Experimental: (§1) MICs were determined utilizing a 1:2 ratio of cefpodoxime:ETX1317. […] The isolates utilized in the present study (Table 1) were broadly insensitive to CPD, presumably due to the presence of ESBLs and carbapenemases expressed in these strains. The addition of ETX1317 restored CPD activity to ≤1 μg/mL across all the tested isolates.
(§2) The MIC of each isolate was determined using the broth microdilution method following CLSI guidelines of document M07-A7 (CLSI M07-A7).

K. pneumoniae ARC4420 = experiment: MIC, broth microdilution (CLSI); type: cell-based; conditions: Klebsiella pneumoniae, combination at 1:2 ratio cefpodoxime:ETX1317, MIC of CPD
Experimental: as §1, §2

E. coli NMC101 [3] = experiment: MIC, broth microdilution (CLSI); type: cell-based; conditions: Escherichia coli, combination at 1:2 ratio cefpodoxime:ETX1317, MIC of CPD
Experimental: as §1, §2

E. coli ARC4419 [4] = experiment: MIC, broth microdilution (CLSI); type: cell-based; conditions: Escherichia coli, combination at 1:2 ratio cefpodoxime:ETX1317, MIC of CPD
Experimental: as §1, §2

K. pneumoniae ARC4488 = experiment: MIC, broth microdilution (CLSI); type: cell-based
Experimental: as §1, §2

K. pneumoniae ARC4486 = experiment: MIC, broth microdilution (CLSI); type: cell-based; conditions: Klebsiella pneumoniae, combination at 1:2 ratio cefpodoxime:ETX1317, MIC of CPD
Experimental: as §1, §2

E. coli ARC2687 [5] = experiment: MIC, broth microdilution (CLSI); type: cell-based
Experimental: as §1, §2

[6] = tested on: Enterobacteriaceae isolates; experiment: Hollow-fiber and chemostat models, strains combined; type: cell-based, E. coli, K. pneumoniae; conditions: infused alone, both models
Experimental: The PK/PD driver of ETX1317 was assessed in the presence of CPD in both hollow-fiber[28]−[31] and chemostat[32]in vitro infection model systems. In all cases, CPD was administered q12h via a 2 h infusion and eliminated with a 2 h half-life, with the concentration of drug exceeding the MIC (the MIC of CPD in the presence of ETX1317 at a 1:2 ratio) for 50% of the dosing interval for each strain. Representative Emax plots are shown graphically for Escherichia coli ARC2687 in the hollow-fiber model and Klebsiella pneumoniae ARC4420 in the chemostat system (Figure 2). […] This could partially be attributed to the distribution of the concentration ranges utilized for the hollow-fiber infection model (HFIM) where most of the data scatter occurred in the efficacious dose range for lower MIC strains. It is important to note that initial evaluation of K. pneumoniae ARC4420 and ARC5118 was completed in the HFIM but rapid degradation of CPD, presumably through accumulation of β-lactamases in the extra-capillary space of the cartridge precluded a reliable assessment of the PK/PD driver with these strains in this model.[32] […] In both the HFIM and chemostat models the optimum critical threshold of ETX1317 was established through iterative Emax fitting of a range of ETX1317 concentrations from 0.5× to 2× the CPD:ETX1317 MIC value. In the HFIM, %Time > ETX1317 CT of 2× MIC provided the highest correlation to observed activity which appeared to be independent to the apparent intrinsic activity of ETX1317 (as reflected by ETX1317 MICBLI of K. pneumoniae ARC4486 vs ARC4488). […] In both models CPD infused alone mimicked vehicle control as expected with similar growth of +2 to 4 log10 CFU/mL.
PK/PD-derived exposure targets for BLIs have utilized various approaches for clinical dose setting. The use of a singular critical threshold value independent of MIC has been used for recent BL/BLI combinations such as ceftazidime/avibactam[34] aztreonam/avibactam,[35] but this has been problematic to correlate activity across a broad range of MICs. More recent work with ceftolozane/tazobactam[36] and other BLI combinations[37],[38] considers a critical threshold value that varies proportionally to the MIC value. […] Convergence of the data to a threshold value related to MIC simplifies dose setting and, in this case, appears to be consistent across a broad range of susceptibility (0.125–1 μg/mL).
Dose range and dose fractionation were performed in hollow-fiber infection model (HFIM) and chemostat (one-compartment) in vitro infection model. […] CPD concentrations were targeted to achieve exposure of ∼50%Time > MIC determined in the presence of ETX1317. […] Bacterial burden (CFU/mL) was serially assessed by sampling (500 μL) from the extra-capillary space of the HFIM cartridge at predetermined time points. […]

[7] = tested on: E. coli strain (ATCC 25922); experiment: MIC; type: cell-based; conditions: Escherichia coli, ATCC25922; susceptible strain
Source text: All in vivo efficacy studies were supported with PK of ETX1317 and CPD following oral administration of ETX0282 and CPDP. For the purposes of understanding the exposure-PD response relationship, total systemic concentrations of ETX1317 and cefpodoxime were normalized to unbound drug levels after accounting for protein binding with percent unbound estimates of 93% and 66%, respectively, in mouse plasma (Table S2). An in vivo dose range study with CPDP administered alone against a susceptible E. coli strain (ATCC 25922, CPD MIC = 0.5 μg/mL) was completed initially in a murine neutropenic thigh model to confirm its PK/PD target. In this study a 50 mg/kg oral dose of CPDP administered q6h was consistent with achieving 1–log kill over 24 h. […] Oral exposure was generally dose proportional to 50 mg/kg; however, it became less than dose proportional at ≥200 mg/kg.
as §2

Plasma protein binding = type: in vitro ADME, mouse; conditions: mouse plasma; read-out: percent unbound
Experimental: Plasma protein binding was determined by rapid equilibrium dialysis. Plasma was freshly prepared from blood samples drawn in to EDTA (anticoagulant) containing tubes. Plasma was prepared using a table-top centrifuge and spun per instruction of the tube manufacturer and specifications (Beckton, Dickinson and Company, Franklin Lakes, NJ) and placed on ice prior to use.
Pooled plasma samples were centrifuged at 2000 rpm (approximately 1400g) for 15 min at 4 °C to remove debris. Approximately 90% of the clear supernatant fraction was transferred to a separate tube. Samples (500 μL) were then spiked with a 100× stock solution 100 μM, 0.5 mM, and 10 mM ETX1317 in DMSO respectively for 1, 5, and 100 μM final concentrations, transferred to the top of the filter chambers, and allowed to equilibrate for 15 min prior to centrifugation. The filtrate tubes were centrifuged at 14000g for 15 min at 4 °C. Next, 50 μL of the filtrate was precipitated with 300 μL of acetonitrile containing 250 ng/mL of carbutamide as the internal standard and the samples were analyzed by LC/MS/MS analysis.

K. pneumoniae ARC5118 [8] = experiment: Murine neutropenic thigh infection model; type: in vivo, mouse
Experimental: (§3) In vivo neutropenic infection models in the mouse were conducted as previously described.[48],[49] All procedures were performed to Entasis approved IACUC policies and guidelines as well as OLAW standards. Briefly, Female CD-1 mice (20–22 g, Charles River Laboratories) were acclimated for 5 days prior to start of study. Animals were housed 3 per cage with free access to food and water. Mice were rendered neutropenic via two doses of cyclophosphamide on days −4 and −1 with 150 mg/kg and 100 mg/kg delivered intraperitoneally in a dose volume of 10 mL/kg, respectively.[48]
(§4) Enterobacteriaceae isolates ARC2687, ARC4488, ARC5118, NMC101, and ARC4419 were prepared for infection from an overnight plate culture. A portion of the plate was resuspended in sterile saline and adjusted to an OD of 0.1 at 625 nm. The adjusted bacterial suspension was further diluted to target an infecting inoculum of approximately 5.0 × 10^6–1.0 × 10^7 CFU/mouse. The actual inoculum size varied between 5.5 × 10^6–1.6 × 10^6 CFU/thigh and administered via intramuscular injection of (100 μL). Plate counts of the inoculum were performed to confirm inoculum concentration and treatment was initiated 2 h after bacterial challenge.
(§5) ETX0282 and CPDP were formulated in 0.5% HPMC/0.1% Tween 80 suspension. meropenem (utilized as a positive control) was solubilized in water for injection. All studies utilized a meropenem dosed at 600 mg/kg q6h subcutaneously as positive control against meropenem sensitive isolates (MIC ≤ 2 μg/mL) and as a negative control against meropenem resistant isolates. For dose arms utilizing a combination of ETX0282 and CPDP, both agents were reconstituted in the same vehicle. All dose concentrations were adjusted to deliver targeted mg/kg doses within a dose volume of 10 mL/kg. Formulation potency was verified by LC/MS/MS.
(§6) ETX0282 and CPDP were administered via q6h dose intervals in order to achieve targeted unbound exposures. At 24 h post initiation of therapy, animals were euthanized, tissue samples aseptically collected and homogenized. Bacterial colony enumeration of tissue homogenate was performed by serial dilution on TSA plates which were incubated overnight at 35 °C prior to colony (CFU) counting.

E. coli ARC2687 [9] = experiment: Murine neutropenic thigh infection model; type: in vivo, mouse
Experimental: as §3, §4, §5, §6

E. coli NMC101 [10] = experiment: Murine neutropenic thigh infection model; type: in vivo, mouse; conditions: 600 mg/kg s.c./q6h
Experimental: (§7) To further understand whether this in vitro activity translated to in vivo efficacy, an additional neutropenic thigh study was conducted in mice with increasing doses of ETX0282 alone vs E. coli NMC101 (ETX1317 MICBLI = 1 μg/mL) and ARC4419 (ETX1317 MICBLI = 0.25 μg/mL). […] Despite the significant exposure of ETX1317, a 200 mg/kg q6h dose of ETX0282 alone was ineffective for both strains (Table 6).
as §3, §4, §5, §6

E. coli ARC4419 [11] = experiment: Murine neutropenic thigh infection model; type: in vivo, mouse; conditions: 600 mg/kg s.c./q6h
Experimental: as §7, §3, §4, §5, §6

[12] = q6h, 24 h, cidal = ≥1 log10 CFU/g reduction

MIC (K. pneumoniae ARC5118 [2]; Klebsiella pneumoniae, ARC5118, combination at 1:2 ratio cefpodoxime:ETX1317, MIC of CPD): > 64 µg/mL
MIC (K. pneumoniae ARC4420): > 64 µg/mL
MIC (E. coli NMC101 [3]): > 64 µg/mL
MIC (E. coli ARC4419 [4]): 64 µg/mL
MIC (K. pneumoniae ARC4488; Klebsiella pneumoniae, ARC4488, combination at 1:2 ratio cefpodoxime:ETX1317, MIC of CPD): > 64 µg/mL
MIC (K. pneumoniae ARC4486): > 64 µg/mL
MIC (E. coli ARC2687 [5]; Escherichia coli, ARC2687, combination at 1:2 ratio cefpodoxime:ETX1317, MIC of CPD): > 64 µg/mL
MIC [7]: 0.5 µg/mL (≈ 1.17 µM)
fraction unbound at 15 min (Plasma protein binding): 0.66
SMILES: COCC1=C(C(=O)O)N2C(=O)[C@@H](NC(=O)/C(=N\OC)c3csc(N)n3)[C@H]2SC1 [cefpodoxime]
% of dosing interval with mean unbound concentrations exceeding at least 0.5 μg/mL ([1]; 400 mg q12h (800 mg/day)): greater than 50%
half-life in humans ([1]; humans): 2 h
F% ([1]; oral proxetil ester prodrug, top dose 400 mg q12h): ≈ 50%
growth [6]: +2 to 4 log10 CFU/mL

SMILES: C[C@@H](O)[C@H]1C(=O)N2C(C(=O)O)=C(S[C@@H]3CN[C@H](C(=O)N(C)C)C3)[C@H](C)[C@H]12 [meropenem]
susceptibility to meropenem (K. pneumoniae ARC5118 [2]; KPC-producing isolate): resistant to meropenem
susceptibility to meropenem (K. pneumoniae ARC4488; ESBL producer): maintain susceptibility to meropenem
susceptibility to meropenem (E. coli ARC2687 [5]; ESBL producer): maintain susceptibility to meropenem
log10 CFU/g thigh change 24 h post therapy initiation (K. pneumoniae ARC5118 [8]; 600 mg/kg s.c./q6h): +2.04 log10 CFU/g
in vivo efficacy in words (K. pneumoniae ARC5118 [8]; [12]): not against K. pneumoniae ARC5118
log10 CFU/g thigh change 24 h post therapy initiation (E. coli ARC2687 [9]; 600 mg/kg s.c./q6h): –1.46 log10 CFU/g
in vivo efficacy in words (E. coli ARC2687 [9]; [12]): cidal activity
log10 CFU/g thigh change 24 h post therapy initiation (E. coli NMC101 [10]): –1.36 log10 CFU/g
log10 CFU/g thigh change 24 h post therapy initiation (E. coli ARC4419 [11]): –2.19 log10 CFU/g
